# From US20170100383A1, “TOPICAL FORMULATIONS FOR PREVENTING SKIN INFECTION” (Practical Solution, Inc., priority 2015, published 2017)
# Like-named read-outs stand apart in the source and are kept apart here.
# Columns and labels:
# Type in all cases: cell-based
# Conditions in all cases: 48 h
# [1] = test system: Staphylococcus aureus ATCC6538; experiment: Broth microdilution inhibitory rate (MIC assay) against Staphylococcus aureus
# Experimental: (§1) Staphyloccocus aureus strain ATCC 6538, Bacillus subtilis ATCC9372 or Candida albicans ATCC10231 each (0.1 ml of a bacterial suspension having 10^8 cfu/ml bacteria) were inoculated into the mixture. […] Test tubes containing the mixtures were placed in a 37° C. incubator and incubated for 48 hours. The concentration of bacterial cells in each test tube was measured. The inhibitory rates were calculated as below:
# (§2) [(Positive control average colony count−Test average colony count)/Positive control average colony count]×100%
# (§3) Positive controls are the tubes having broth and microorganisms but no antimicrobial agents.
# [2] = test system: Bacillus subtilis ATCC9372
# Experimental: as §1, §2, §3
# [3] = test system: Candida albicans ATCC10231; experiment: Broth microdilution inhibitory rate (MIC assay) against Candida albicans
# Experimental: as §1, §2, §3
# [4] = dilution 1* of initial concentration (CHG 5 g/L, CPC 0.5 g/L), 37° C.
# [5] = dilution 1/10 of initial concentration (CHG 5 g/L, CPC 0.5 g/L)
# [6] = dilution 1/100 of initial concentration (CHG 5 g/L, CPC 0.5 g/L)
# [7] = dilution 1/1000 of initial concentration (CHG 5 g/L, CPC 0.5 g/L)
# [8] = dilution 1/2000 of initial concentration (CHG 5 g/L, CPC 0.5 g/L)
# [9] = dilution 1/4000 of initial concentration (CHG 5 g/L, CPC 0.5 g/L)
# [10] = dilution 1/8000 of initial concentration (CHG 5 g/L, CPC 0.5 g/L)
structure (smiles),measurement,setting,value
"N=C(NCCCCCCNC(=N)NC(=N)Nc1ccc(Cl)cc1)NC(=N)Nc1ccc(Cl)cc1.O=C(O)[C@H](O)[C@@H](O)[C@H](O)[C@H](O)CO.O=C(O)[C@H](O)[C@@H](O)[C@H](O)[C@H](O)CO [CHG, chlorhexidine digluconate]",Anti-microbial activity (inhibitory rate),[1]; [4],100%
same,Anti-microbial activity (inhibitory rate),[1]; [5],100%
same,Anti-microbial activity (inhibitory rate),[1]; [6],100%
same,Anti-microbial activity (inhibitory rate),[1]; [7],100%
same,Anti-microbial activity (inhibitory rate),[1]; [8],100%
same,Anti-microbial activity (inhibitory rate),[1]; [9],100%
same,Anti-microbial activity (inhibitory rate),[1]; [10],78.43%
same,Anti-microbial activity (inhibitory rate),[2]; [4],100%
same,Anti-microbial activity (inhibitory rate),[2]; [5],100%
same,Anti-microbial activity (inhibitory rate),[2]; [6],100%
same,Anti-microbial activity (inhibitory rate),[2]; [7],100%
same,Anti-microbial activity (inhibitory rate),[2]; [8],100%
same,Anti-microbial activity (inhibitory rate),[2]; [9],100%
same,Anti-microbial activity (inhibitory rate),[2]; [10],99.99%
same,Anti-microbial activity (inhibitory rate),"[2]; dilution 1/16000 of initial concentration (CHG 5 g/L, CPC 0.5 g/L)",99.50%
same,Anti-microbial activity (inhibitory rate),"[2]; dilution 1/32000 of initial concentration (CHG 5 g/L, CPC 0.5 g/L)",90.83%
same,Anti-microbial activity (inhibitory rate),[3]; [4],100%
same,Anti-microbial activity (inhibitory rate),[3]; [5],100%
same,Anti-microbial activity (inhibitory rate),[3]; [6],100%
same,Anti-microbial activity (inhibitory rate),[3]; [7],97.76%
same,Anti-microbial activity (inhibitory rate),[3]; [8],93.92%
same,Anti-microbial activity (inhibitory rate),[3]; [9],90.41%
